Columns and labels:
SR [1] = assay: Cytotoxicity against human SR cells assessed as cell growth at 10^-7 M after 48 hrs by SRB assay; format: functional; settings: read-out: Activity
[2] = Cytotoxicity against human SKOV3 cells assessed as cell growth at 10^-6 M after 48 hrs by SRB assay; format: functional; settings: SK-OV-3, 48 h, read-out: Activity
NCI-H460 = assay: Cytotoxicity against human NCI-H460 cells assessed as cell growth at 10^-5 M after 48 hrs by SRB assay; format: functional; settings: NCI-H460, 48 h, read-out: Activity
Malme-3M [3] = assay: Cytotoxicity against human MALME-3M cells assessed as cell growth at 10^-5 M after 48 hrs by SRB assay; format: functional; settings: read-out: Activity
[4] = Cytotoxicity against human DU145 cells assessed as cell growth at 10^-7 M after 48 hrs by SRB assay; format: functional; settings: DU-145, 48 h, read-out: Activity
786-0 = assay: Cytotoxicity against human 786-0 cells assessed as cell growth at 10^-8 M after 48 hrs by SRB assay; format: functional; settings: 786-0, 48 h, read-out: Activity
[5] = Cytotoxicity against human RXF393 cells assessed as cell growth at 10^-8 M after 48 hrs by SRB assay; format: functional; settings: RXF 393, 48 h, read-out: Activity
[6] = Cytotoxicity against human HCC2998 cells assessed as cell growth at 10^-8 M after 48 hrs by SRB assay; format: functional; settings: HCC 2998, 48 h, read-out: Activity
[7] = Cytotoxicity against human HOP62 cells assessed as cell growth at 10^-7 M after 48 hrs by SRB assay; format: functional; settings: HOP-62, 48 h, read-out: Activity
A549 [8] = assay: Cytotoxicity against human A549 cells assessed as cell growth at 10^-7 M after 48 hrs by SRB assay; format: functional; settings: A549, 48 h, read-out: Activity
[9] = Cytotoxicity against human TK10 cells assessed as cell growth at 10^-4 M after 48 hrs by SRB assay; format: functional; settings: TK-10, 48 h, read-out: Activity
MDA-MB-231 = assay: Cytotoxicity against human MDA-MB-231 cells assessed as cell growth at 10^-5 M after 48 hrs by SRB assay; format: functional; settings: MDA-MB-231, 48 h, read-out: Activity
MDA-MB-468 [10] = assay: Cytotoxicity against human MDA-MB-468 cells assessed as cell growth at 10^-5 M after 48 hrs by SRB assay; format: functional; settings: MDA-MB-468, 48 h, read-out: Activity
[11] = Cytotoxicity against human SW620 cells assessed as cell growth at 10^-5 M after 48 hrs by SRB assay; format: functional; settings: SW-620, 48 h, read-out: Activity
Malme-3M [12] = assay: Cytotoxicity against human MALME-3M cells assessed as cell growth at 10^-7 M after 48 hrs by SRB assay; format: functional; settings: read-out: Activity
[13] = Cytotoxicity against human SNB75 cells assessed as cell growth at 10^-7 M after 48 hrs by SRB assay; format: functional; settings: SNB-75, 48 h, read-out: Activity
NCI-H322M = assay: Cytotoxicity against human NCI-H322M cells assessed as cell growth at 10^-6 M after 48 hrs by SRB assay; format: functional; settings: read-out: Activity
[14] = Cytotoxicity against human UACC62 cells assessed as cell growth at 10^-5 M after 48 hrs by SRB assay; format: functional; settings: UACC-62, 48 h, read-out: Activity
[15] = Cytotoxicity against human UACC62 cells assessed as cell growth at 10^-8 M after 48 hrs by SRB assay; format: functional; settings: UACC-62, 48 h, read-out: Activity
Malme-3M [16] = assay: Cytotoxicity against human MALME-3M cells assessed as cell growth at 10^-8 M after 48 hrs by SRB assay; format: functional; settings: read-out: Activity
[17] = Cytotoxicity against human SF268 cells assessed as cell growth at 10^-8 M after 48 hrs by SRB assay; format: functional; settings: SF-268, 48 h, read-out: Activity
[18] = Metabolic stability in human liver microsomes assessed as remaining parent compound level at 10 uM after 3 hrs in presence of NAPDH by LC/MS analysis; format: ADME; settings: read-out: Drug metabolism
A549 [19] = assay: Cytotoxicity against human A549 cells assessed as cell growth at 5 uM after 48 hrs by SRB assay; format: functional; settings: A549, 48 h, read-out: Activity
[20] = Cytotoxicity against human DU145 cells assessed as cell growth at 5 uM after 48 hrs by SRB assay; format: functional; settings: DU-145, 48 h, read-out: Activity
[21] = Cytotoxicity against human COLO205 cells assessed as cell growth at 50 uM after 48 hrs by SRB assay; format: functional; settings: COLO 205, 48 h, read-out: Activity
[22] = Cytotoxicity against human RXF393 cells assessed as cell growth at 0.5 uM after 48 hrs by SRB assay; format: functional; settings: RXF 393, 48 h, read-out: Activity
EKVX = assay: Cytotoxicity against human EKVX cells assessed as cell growth at 5 uM after 48 hrs by SRB assay; format: functional; settings: read-out: Activity
MDA-MB-468 [23] = assay: Cytotoxicity against human MDA-MB-468 cells assessed as cell growth at 5 uM after 48 hrs by SRB assay; format: functional; settings: MDA-MB-468, 48 h, read-out: Activity
[24] = Cytotoxicity against human RXF393 cells assessed as cell growth at 5 uM after 48 hrs by SRB assay; format: functional; settings: RXF 393, 48 h, read-out: Activity
[25] = Cytotoxicity against human BT549 cells assessed as cell growth at 50 nM after 48 hrs by SRB assay; format: functional; settings: BT-549, 48 h, read-out: Activity
[26] = Cytotoxicity against human HCT15 cells assessed as cell growth at 50 uM after 48 hrs by SRB assay; format: functional; settings: HCT-15, 48 h, read-out: Activity
[27] = Cytotoxicity against human NCI-ADR-RES cells assessed as cell growth at 5 uM after 48 hrs by SRB assay; format: functional; settings: read-out: Activity
SR [28] = assay: Cytotoxicity against human SR cells assessed as cell growth at 50 nM after 48 hrs by SRB assay; format: functional; settings: read-out: Activity
[29] = Cytotoxicity against human UO31 cells assessed as cell growth at 0.5 uM after 48 hrs by SRB assay; format: functional; settings: UO-31, 48 h, read-out: Activity
[30] = Cytotoxicity against human NCI-ADR-RES cells assessed as cell growth at 0.5 uM after 48 hrs by SRB assay; format: functional; settings: read-out: Activity
A498 = assay: Cytotoxicity against human A498 cells assessed as cell growth at 0.5 uM after 48 hrs by SRB assay; format: functional; settings: A498, 48 h, read-out: Activity
[31] = Cytotoxicity against human IGROV1 cells assessed as cell growth at 50 nM after 48 hrs by SRB assay; format: functional; settings: IGROV-1, 48 h, read-out: Activity
T47D = assay: Cytotoxicity against human T47D cells assessed as cell growth at 0.5 uM after 48 hrs by SRB assay; format: functional; settings: read-out: Activity
[32] = Cytotoxicity against human LOXIMVI cells assessed as cell growth at 5 uM after 48 hrs by SRB assay; format: functional; settings: LOX IMVI, read-out: Activity
[33] = Cytotoxicity against human RPMI8226 cells assessed as cell growth at 5 nM after 48 hrs by SRB assay; format: functional; settings: RPMI-8226, 48 h, read-out: Activity
[34] = Cytotoxicity against human LOXIMVI cells assessed as cell growth at 50 nM after 48 hrs by SRB assay; format: functional; settings: LOX IMVI, read-out: Activity
NCI-H522 = assay: Cytotoxicity against human NCI-H522 cells assessed as cell growth at 50 uM after 48 hrs by SRB assay; format: functional; settings: NCI-H522, 48 h, read-out: Activity

In the case of `C/C(=C(/c1ccc(O)cc1)c1ccc(OCCN2CCCC2)cc1)c1ccccc1`, the growth at 0.1 µM (SR [1]) is reported as 90%, the growth at 1 µM [2] is reported as 89% and the growth at 10 µM (NCI-H460) is reported as -38%. The growth at 10 µM (Malme-3M [3]) was -77%, the growth at 0.1 µM [4] was 96% and the growth at 0.01 µM (786-0) was 97%. It also gave a growth at 0.01 µM [5] of 96%, a growth at 0.01 µM [6] of 100% and a growth at 0.1 µM [7] of 95%. It also gave a growth at 0.1 µM (A549 [8]) of 102%, a growth at 100 µM [9] of -100% and a growth at 10 µM (MDA-MB-231) of -10%. The growth at 10 µM (MDA-MB-468 [10]) was -45%, the growth at 10 µM [11] was -40% and the growth at 0.1 µM (Malme-3M [12]) was 91%. For the same compound, the growth at 0.1 µM [13] was 83%, the growth at 1 µM (NCI-H322M) was 90% and the growth at 10 µM [14] was -51%. The growth at 0.01 µM [15] was 99%, the growth at 0.01 µM (Malme-3M [16]) was 99% and the growth at 0.01 µM [17] was 98%.

With `CCCCCCCCCC(=O)Oc1ccc(/C(=C(/C)c2ccccc2)c2ccc(OCCN3CCCC3)cc2)cc1` the remaining at 3 h, 10 µM [18] was 63%, the growth at 5 µM (A549 [19]) was 99% and the growth at 5 µM [20] was 88%. For the same compound, the growth at 50 µM [21] was -89%, the growth at 0.5 µM [22] was 61% and the growth at 5 µM (EKVX) was 74%. The growth at 5 µM (MDA-MB-468 [23]) was 76%, the growth at 5 µM [24] was 73% and the growth at 0.05 µM [25] was 92%. For the same compound, the growth at 50 µM [26] was -100%, the growth at 5 µM [27] was 82% and the growth at 0.05 µM (SR [28]) was 87%. The growth at 0.5 µM [29] was 61%, the growth at 0.5 µM [30] was 73% and the growth at 0.5 µM (A498) was 49%. It also gave a growth at 0.05 µM [31] of 95%, a growth at 0.5 µM (T47D) of 46% and a growth at 5 µM [32] of 89%. For the same compound, the growth at 0.005 µM [33] was 99%, the growth at 0.05 µM [34] was 97% and the growth at 50 µM (NCI-H522) was -74%.
